Laboratory results as given in US5789542A, “Amphipathic peptides” (Board of Supervisors of Louisiana State University and …, priority 1997, dated 1998).
Where a SMILES comes first, the peptide text is derived from it.

Experiments:
Format in all cases: cell-based
murine cell line 3T12 = experiment: Sublethal concentration, Tryptan blue staining, 3T12 cells; conditions: transformed, immortalized mouse fibroblast cells, thirty minutes at 37° C., highest concentration with at least one nucleus not stained
Procedure: (§1) Also shown in Table 1 are sublethal concentrations for some of the peptides against the murine cell lines 3T3 and 3T12. Dilutions of peptide were prepared over a range of concentrations. Equal volumes of peptide solution and 250-750 murine cells were mixed together. The cells were incubated for thirty minutes at 37° C. 50 μL of Tryptan blue stain were then added to each well. Under light microscopy, killed cells could be visualized by the fact that their nuclei were stained. The sublethal dose was the highest concentration for which at least one cell nucleus was not stained. (Blank entries in Table 1 correspond to assays that had not been completed as of the date this application is being filed. Values for those entries will be determined in future assays performed in the same manner.)
(§2) P. aeruginosa and E. coli are Gram-negative bacteria, while S. aureus is a Gram-positive bacterium. 3T3 cells are healthy Swiss mouse fibroblast cells, and 3T12 cells are transformed, immortalized mouse fibroblast cells. Thus the novel peptides (at the proper concentrations) have activity against both Gram-negative and Gram-positive bacteria, while not showing activity against mammalian cells. This combination of properties is itself rather unusual in a lytic peptide.

murine cell line 3T3 = experiment: Sublethal concentration, Tryptan blue staining, 3T3 cells; conditions: healthy Swiss mouse fibroblast cells, thirty minutes at 37° C., highest concentration with at least one nucleus not stained
Procedure: as §1, §2

[1] = tested on: Pseudomonas aeruginosa ATCC 27853; experiment: Minimum inhibitory concentration by broth microdilution, P. aeruginosa; conditions: 5×10^4 cells, incubated overnight
Procedure: (§3) Minimum inhibitory concentrations of several of the peptides were measured against E. coli ATCC 25922, Pseudomonas aeruginosa ATCC 27853, and Staphylococcus aureus ATCC 25723. Minimum inhibitory concentrations were obtained by the broth microdilution method. Peptide solutions were prepared over a range of concentrations from 2 μg/mL to 256 μg/mL. 5×10^4 cells were added to the peptide solutions in sterile wells and incubated overnight. Wells in which the organisms grew became turbid. The minimum inhibitory concentration was the lowest concentration that inhibited growth of the organism.
as §2

E. coli ATCC 25922 = experiment: Minimum inhibitory concentration by broth microdilution, E. coli; conditions: 5×10^4 cells, incubated overnight
Procedure: as §3, §2

[2] = tested on: Staphylococcus aureus ATCC 25723; experiment: Minimum inhibitory concentration by broth microdilution, S. aureus; conditions: 5×10^4 cells, incubated overnight
Procedure: as §3, §2

mammalian cell = experiment: Mammalian cell permeation to an exterior fluorescent dye; conditions: ratio to antibacterial concentration

Compound	Sublethal Concentration, 3T12 (murine cell line 3T12)	Sublethal Concentration, 3T3 (murine cell line 3T3)	Minimum Inhibitory Concentration, P. aeruginosa [1] [µM]	Minimum Inhibitory Concentration, E. coli (E. coli ATCC 25922) [µM]	Minimum Inhibitory Concentration, S. aureus [2] [µM]	Concentration at which mammalian cell permeation to an exterior fluorescent dye begins, relative to concentrations that effectively inhibited bacterial growth (mammalian cell)
COC(=O)[C@H](C)NC(=O)[C@H](CC(C)C)NC(=O)[C@H](CCCCN)NC(=O)[C@H](CCCCN)NC(=O)[C@H](C)NC(=O)[C@H](CC(C)C)NC(=O)[C@H](CCCCN)NC(=O)[C@H](C)NC(=O)[C@H](CC(C)C)NC(=O)[C@H](CCCCN)NC(=O)[C@H](CCCCN)NC(=O)[C@H](C)NC(=O)[C@H](CC(C)C)NC(=O)[C@@H](N)CCCCN [(KLAKKLA)2] (H-KLAKKLAKLAKKLA-OMe)	788 µM	394 µM	–	–	–	–
CC(C)C[C@H](NC(=O)[C@H](CCCCN)NC(=O)[C@H](C)NC(=O)[C@H](CC(C)C)NC(=O)[C@H](CCCCN)NC(=O)[C@H](CCCCN)NC(=O)[C@H](C)NC(=O)[C@H](CC(C)C)NC(=O)[C@H](CCCCN)NC(=O)[C@H](C)NC(=O)[C@H](CC(C)C)NC(=O)[C@H](CCCCN)NC(=O)[C@H](CCCCN)NC(=O)[C@H](C)NC(=O)[C@H](CC(C)C)NC(=O)[C@H](CCCCN)NC(=O)[C@H](C)NC(=O)[C@H](CC(C)C)NC(=O)[C@@H](N)CCCCN)C(=O)N[C@@H](C)C(=O)N[C@@H](CCCCN)C(N)=O [(KLAKLAK)3]	–	–	3.7	3.7	3.7	–
COC(=O)[C@H](C)NC(=O)[C@H](CC(C)C)NC(=O)[C@H](CCCCN)NC(=O)[C@H](CCCCN)NC(=O)[C@H](C)NC(=O)[C@H](CC(C)C)NC(=O)[C@H](CCCCN)NC(=O)[C@H](C)NC(=O)[C@H](CC(C)C)NC(=O)[C@H](CCCCN)NC(=O)[C@H](CCCCN)NC(=O)[C@H](C)NC(=O)[C@H](CC(C)C)NC(=O)[C@@H](N)CCCCN [Peptide 14-mer, (KLAKKLA)2 -OCH3] (H-KLAKKLAKLAKKLA-OMe)	–	–	–	–	–	about 50 times
CC[C@H](C)[C@H](NC(=O)CN)C(=O)NCC(=O)N[C@@H](C)C(=O)N[C@H](C(=O)N[C@@H](CC(C)C)C(=O)N[C@@H](CCCCN)C(=O)N[C@H](C(=O)N[C@@H](CC(C)C)C(=O)N[C@H](C(=O)N[C@H](C(=O)NCC(=O)N[C@@H](CC(C)C)C(=O)N1CCC[C@H]1C(=O)N[C@@H](C)C(=O)N[C@@H](CC(C)C)C(=O)N[C@H](C(=O)N[C@@H](CO)C(=O)N[C@@H](Cc1c[nH]c2ccccc12)C(=O)N[C@H](C(=O)N[C@@H](CCCCN)C(=O)N[C@@H](CCCNC(=N)N)C(=O)N[C@@H](CCCCN)C(=O)N[C@@H](CCCNC(=N)N)C(=O)N[C@@H](CCC(N)=O)C(=O)N[C@@H](CCC(N)=O)C(N)=O)[C@@H](C)CC)[C@@H](C)CC)[C@@H](C)O)[C@@H](C)O)C(C)C)C(C)C [melittin, reference compound]	0.78 µM	0.78 µM	2.3	0.56	0.56	–
(KALKALK)3	–	–	3.9	3.9	7.8	–
(KLAKKLA)	N.L.	N.L.	> 100	> 100	> 100	–
(KLAKKLA)3 (KLAKKLAKLAKKLAKLAKKLA)	17 µM	9 µM	4.2	4.2	4.2	–
(KLAKKLA)4 (KLAKKLAKLAKKLAKLAKKLAKLAKKLA)	52 µM	13 µM	9.0	9.0	9.0	–
(KLAKLAK)	–	–	> 95	> 95	> 95	–
(KLAKLAK)2 (KLAKLAKKLAKLAK)	–	–	5.8	5.8	5.8	–
(KLAKLAK)4 (KLAKLAKKLAKLAKKLAKLAKKLAKLAK)	–	–	9.4	9.4	9.4	–
(KLGKKLG)3 (KLGKKLGKLGKKLGKLGKKLG)	565 µM	565 µM	3.4	3.4	3.4	–
cecropin B (KWKVFKKIEKMGRNIRNGIVKAGPAIAVLGEAKAL; UniProt P01508 27-61, looked up) [naturally occurring lytic peptide used for comparison, reference compound]	–	–	0.20	0.20	1.7	–
magainin 2 (KLGKKLGKLGKKLGKLGKKLG) [naturally occurring lytic peptide used for comparison, reference compound]	–	–	0.65	1.3	1.3	–
